Data from PMC8617691, “Distigmasterol-Modified Acylglycerols as New Structured Lipids—Synthesis, Identification and Cytotoxicity” (Molecules, 2021).
Read-outs that look alike come from different tables or passages of the source.

What was measured:
[1] = MTT cytotoxicity test, colon mucosa cells; assay type: cell-based, human; conditions: human, CCD 841CoN normal colonic epithelial cells, colon cells (CCD 841CoN), 100 µg/mL, read-out: cell proliferation and viability at the maximum dose
Procedure: (§1) Distigmasterol-modified acylglycerols were examined for their cytotoxicity in normal human cells originating from the digestive system. The cells were treated for 48 h with increasing concentrations of dStigMAs, and cell proliferation, metabolic activity, and viability were assayed using the MTT test. The cytotoxic effects of the analyzed dStigMAs on CCD 841CoN colon mucosa cells, FHs 74 Int small intestine epithelial cells, and THLE-2 hepatocytes are presented in Figure 6.
(§2) The cytotoxicity of dStigMAs was analyzed at the maximum concentration of 100 µg/mL, which corresponded to doses of 83 µM of dStigC-PA, 81 µM of dStigC-OA, 76 µM of dStigS-PA, and 75 µM of dStigS-OA. The minimum doses tested were 10,000-fold lower. Cell viability and metabolic activity were assessed using the MTT test following the procedure described by Olejnik et al..
(§3) Figure 6 Effect of dStigMAs on (A) normal small intestinal epithelial cells (FHs 74 Int, ATCC® CCL241™), (B) normal colonic epithelial cells (CCD 841CoN, ATCC® CRL-179™), and (C) normal liver cells (THLE-2, ATCC® CRL-2706™).

[2] = MTT cytotoxicity test, hepatocytes; assay type: cell-based, human; conditions: human, THLE-2 normal liver cells (hepatocytes), liver cells (THLE-2), 100 µg/mL, read-out: cell proliferation and viability at the maximum dose
Procedure: as §1, §2, §3

[3] = system: FHs 74 Int small intestine epithelial cells; assay: MTT cytotoxicity test, small intestinal epithelial cells; assay type: cell-based, human; conditions: FHs 74 Int cells; for dose at which first cytotoxic symptoms were noted: 48 h treatment; for EC50: Homo sapiens, FHs74Int, read-out: median effective concentration (EC50); for EC50 / cytotoxicity (in words): 48 h; for cytotoxicity (in words): 100 µg/mL and lower concentrations
Procedure: as §1, §2, §3

[4] = as above; assay type: cell-based, human; conditions: human, FHs 74 Int normal small intestinal epithelial cells, FHs 74 Int cells, 100 µg/mL, 48 h, read-out: cell viability at the maximum concentration tested
Procedure: as §1, §2, §3

[5] = system: CCD 841CoN colon mucosa cells; assay: MTT cytotoxicity test, colon mucosa cells; assay type: cell-based, human; conditions: CCD 841CoN cells, 100 µg/mL and lower concentrations, 48 h
Procedure: as §1, §2, §3

[6] = system: THLE-2 hepatocytes; assay: MTT cytotoxicity test, hepatocytes; assay type: cell-based, human; conditions: THLE-2 cells, 100 µg/mL and lower concentrations, 48 h
Procedure: as §1, §2, §3

In the case of CCCCCCCCC=CCCCCCCCC(=O)OCC(COC(=O)OC1CCC2(C)C(=CCC3C2CCC2(C)C(C(C)C=CC(CC)C(C)C)CCC32)C1)OC(=O)OC1CCC2(C)C(=CCC3C2CCC2(C)C(C(C)C=CC(CC)C(C)C)CCC32)C1 (stereo not shown) [dStigC-OA, 2,3-Distigmasterylcarbonoyl-1-Oleoyl-sn-Glycerol], the viability at 48 h, 100 µg/mL [1] is reported as 59.4%, the viability at 48 h, 100 µg/mL [2] is reported as 48.9% and the “dose at which first cytotoxic symptoms were noted” value [3] is reported as 0.1 µg/mL. For the same compound, the EC50 [3] was 0.47 µg/mL, the EC50 ([3]; value in brackets) was 0.381 µM and the viability at 48 h, 100 µg/mL [4] was 20.2%.

With CCCCCCCCCCCCCCCC(=O)OCC(COC(=O)O[C@H]1CC[C@@]2(C)C(=CC[C@H]3[C@@H]4CC[C@H]([C@H](C)/C=C/[C@@H](CC)C(C)C)[C@@]4(C)CC[C@@H]32)C1)OC(=O)O[C@H]1CC[C@@]2(C)C(=CC[C@H]3[C@@H]4CC[C@H]([C@H](C)/C=C/[C@@H](CC)C(C)C)[C@@]4(C)CC[C@@H]32)C1 (stereo partly shown) [dStigC-PA, 1,2-Distigmasterylcarbonoyl-3-Palmitoyl-sn-Glycerol] the viability at 48 h, 100 µg/mL [1] was 53.8%, the viability at 48 h, 100 µg/mL [2] was 56.3% and the “dose at which first cytotoxic symptoms were noted” value [3] was 0.1 µg/mL. For the same compound, the EC50 [3] was 0.32 µg/mL, the EC50 ([3]; value in brackets) was 0.266 µM and the viability at 48 h, 100 µg/mL [4] was 17.5%.

For CCCCCCCCC=CCCCCCCCC(=O)OCC(COC(=O)CCC(=O)OC1CCC2(C)C(=CCC3C2CCC2(C)C(C(C)C=CC(CC)C(C)C)CCC32)C1)OC(=O)CCC(=O)OC1CCC2(C)C(=CCC3C2CCC2(C)C(C(C)C=CC(CC)C(C)C)CCC32)C1 (stereo not shown) [dStigS-OA, 2,3-Distigmasterylsuccinoyl-1-Oleoyl-sn-Glycerol], the “cytotoxicity (in words)” value [5] was “no cytotoxic activity”, the “cytotoxicity (in words)” value [6] was “no cytotoxic activity” and the “cytotoxicity (in words)” value [3] was “no cytotoxic activity”.

For CCCCCCCCCCCCCCCC(=O)OCC(COC(=O)CCC(=O)O[C@H]1CC[C@@]2(C)C(=CC[C@H]3[C@@H]4CC[C@H]([C@H](C)/C=C/[C@@H](CC)C(C)C)[C@@]4(C)CC[C@@H]32)C1)OC(=O)CCC(=O)O[C@H]1CC[C@@]2(C)C(=CC[C@H]3[C@@H]4CC[C@H]([C@H](C)/C=C/[C@@H](CC)C(C)C)[C@@]4(C)CC[C@@H]32)C1 (stereo partly shown) [dStigS-PA, 1,2-Distigmasterylsuccinoyl-3-Palmitoyl-sn-Glycerol], the “cytotoxicity (in words)” value [5] was “no cytotoxic activity”, the melting point was 91 to 93 °C and the “cytotoxicity (in words)” value [6] was “no cytotoxic activity”. For the same compound, the “cytotoxicity (in words)” value [3] was “no cytotoxic activity”.
